# Values quoted from earlier work as cited in patent US12090147B2, “Combination therapy with 2-(4-chlorophenyl)-N-((2-(2,6-dioxopiperidin-3-yl)-1-oxoisoindolin-5-yl)methyl)-2,2-difluoroacetamide” (Celgene Corporation, priority 2019, dated 2024).
# Tested on: acute myeloid leukemia (AML) at relapse
# Conditions: administered alone; cited from earlier work
substance,measurement,value
"CT-011: anti-PD-1 antibody, a humanized antibody",Response in treating AML at relapse,failed to show response
